{"source": "patent US10064909B2", "about": "“Compositions and methods for chronic use of a weight-gaining compound” (priority 2015, dated 2018)", "key": {"[1]": {"experiment": "Two-week oral toxicity study in cats", "type": "in vivo", "method": "This study determined the safety of capromorelin when administered orally to cats. Groups of 3 male and 3 female (n=6/group) mixed breed cats were given capromorelin as an oral capsule once daily at doses of 9, 15, 30 and 60 mg/kg for 14 consecutive days. A similar group was given microcrystalline cellulose as a placebo control. All animals were observed daily for clinical signs and assessed for food consumption, with bodyweights recorded 7 days before dosing and again at euthanasia. Other measurements included periodic clinical pathology evaluations of hematology, serum chemistry and urinalysis. After the dosing period, cats were euthanized and necropsied."}, "[2]": {"experiment": "Safety and effectiveness of daily capromorelin in cats with CKD for 90 days (field study, Example 9)", "type": "in vivo", "method": "This study was to confirm the safety and effectiveness of AT-002 (capromorelin) in cats under field conditions using a dose of 2 mg/kg administered once daily for 90 days. The study tested the hypotheses that AT-002 will maintain or increase bodyweight, improve body condition score (BCS), improve muscle condition score (MCS), improve appetite and/or improve quality of life (QoL) in cats. This was a double-masked, randomized, placebo-controlled, multi-site, proof of concept field study.\nThis study enrolled cats diagnosed with chronic kidney disease (CKD) and a minimum 6-month history of losing weight. The enrollment target was for a minimum of 15 evaluable cases in the AT-002 group and 15 evaluable cases in the Control Product (CP; placebo) group. The Investigator and all study personnel were masked to treatment code (A or B) and treatment group (AT-002 or CP). The Dispenser and Owner remained blinded to treatment group (AT-002 or CP).\nCats were treated with a dosage of 2 mg/kg body weight of AT-002 (AT-002) or a placebo (CP) formulation at the same dose volume as the AT-002 once daily for 90±3 days. Day 0 was the first day of dosing. Cats were evaluated on Day 0, Day 14±1, Day 30±2, Day 60±3 and Day 90±3. The primary effectiveness variable was change in bodyweight from Day 0 through Day 90±3. Secondary effectiveness variables included BCS, MCS, owner appetite assessments and owner QoL assessments.\nAfter enrollment, each case was randomly assigned to AT-002 or CP in a 1:1 ratio. The enrollment target was at least 30 evaluable cases (15 AT-002 and 15 CP) per the study randomization schedule across all sites.\nCats included in the study were spayed/neutered cats of any age and breed with a documented historical decrease in bodyweight over the previous 6 months, and a diagnosis of chronic kidney disease (IRIS stages II, III or IV). Cats on medications for certain stable, chronic conditions were allowed. Excluded from the study were cats in crisis or moribund, cats with documented and uncontrolled hyperthyroidism or inflammatory bowel disease, cats in which food intake is contraindicated (i.e. suspected foreign body, gastrointestinal surgery), cats with dental disease severe enough to impair food intake, cats with diabetes, and cats currently receiving prohibited medications.\nThe Owner maintained the feeding regime the cat was on at study enrollment. No special foods and no special feeding schedule were required. Water was available ad libitum. The cat's diet was monitored and a “Diet History” completed when the Investigator interviewed the Owner at screening/qualification (Day 0), Day 30±2, Day 60±3 and Day 90±3 or at the last study visit (i.e. early removal).\nBodyweight was measured in pounds to the nearest tenth decimal place as part of the physical examination at screening/qualification/Day 0, Day 14±1, Day 30±2, Day 60±3 and Day 90±3 and at the time of any unscheduled visit or early removal from the study. […]"}, "IGF-1 [3]": {"system": "IGF-1", "experiment": "91-day cat safety study: serum IGF-1", "type": "in vivo", "details": "cats, 6 mg/kg, compared to placebo controls; sustained, peak at Day 30", "method": "This controlled study included two treatment groups with 4 adult cats receiving placebo (Group 1) and 8 adult cats receiving capromorelin (Formulation #9, as described above) (Group 2) for 91 consecutive days. All cats were offered food daily for a 6-hour period following an 11-day acclimation phase. All cats were weighed on Days −11, −1, 1, 14, 30, 59, 75, and 91. On Days 1 through 91, animals were orally administered capromorelin once daily via syringe at dose levels of 0 or 6 mg/kg. At one hour post-dose, all cats were offered food for a 6-hour period. Variables of interest included weight gain/loss, food consumption, clinical pathology, and serum analysis of IGF-1 and GH.\nOn Days 1, 30, 59, and 91, blood samples were collected prior to daily dose administration and at 8 hours post-dose and processed to serum for analysis of IGF-1 and GH levels. […] Serum chemistry parameters measured included albumin (ALB), creatine kinase (CK), albumin/globulin ratio (A\\G), globulin (GLOB), alkaline phosphatase (ALP), glucose (GLU), fructosamine, alanine aminotransferase (ALT), blood urea nitrogen (BUN), phosphorus (PHOS), calcium (Ca), potassium (K), chloride (Cl), sodium (Na), cholesterol (CHOL), total protein (TP), creatinine (CRE), total bilirubin (TBIL), BUN/creatinine ratio, and sodium/potassium ratio."}, "IGF-1 [4]": {"system": "IGF-1", "experiment": "Pilot clinical field study: IGF-1 serum levels", "type": "in vivo, cats", "method": "The key variable for the determination of effectiveness was bodyweight. Other effectiveness variables measured included body condition score, muscle condition score, quality of life assessments (unvalidated) and owner appetite assessments (unvalidated). Safety was assessed by physical examinations, clinical pathology testing (hematology and serum chemistry), urinalysis, serum IGF-1 levels and adverse event monitoring."}}, "data": [{"smiles": "CN1N=C2CCN(C(=O)[C@@H](COCc3ccccc3)NC(=O)C(C)(C)N)C[C@@]2(Cc2ccccc2)C1=O.O=C(O)C(O)C(O)C(=O)O", "note": "[capromorelin, N-[(2R)-1-[(3aR)-2-methyl-3-oxo-3a-(phenylmethyl)-6,7-dihydro-4H-pyrazolo[4,3-c]pyridin-5-yl]-1-oxo-3-(phenylmethoxy)propan-2-yl]-2-amino-2-methylpropanamide L-tartrate]", "values": [{"measurement": "NOAEL at 14 days", "setting": "[1]; both sexes, mixed breed, cat, in vivo, cats, oral capsule once daily, 14 days, read-out: no-observed-adverse-effect-level (NOAEL)", "result": 15, "unit": "mg/kg/day"}, {"measurement": "30 mg/kg dose level relative to proposed clinically effective dose", "setting": "[1]; cats", "result": 15, "unit": "times"}, {"measurement": "clinical pathology changes", "setting": "[1]; cats, 15 to 60 mg/kg dosing groups, sporadic", "result": "increases in serum and urine glucose"}, {"measurement": "clinical signs related to capromorelin", "setting": "[1]; cats, 30 and 60 mg/kg treatment groups", "result": "emesis, sporadic salivation, and lethargy/depression"}, {"measurement": "tissue findings at necropsy (gross and microscopic)", "setting": "[1]; cats, 14 days", "result": "not associated with any abnormal tissue findings"}, {"measurement": "tolerability", "setting": "[1]; cats, oral capsule 9, 15, 30 and 60 mg/kg, 14 days", "result": "well tolerated"}, {"measurement": "mean absolute and relative liver weights", "setting": "[1]; females 30 and 60 mg/kg, absolute liver weights in males at all dosages", "result": "increased"}, {"measurement": "adverse events with evidence for a potential relationship to treatment", "setting": "[2]; 2 mg/kg once daily, 90 days", "result": "increased salivation and potentially vomiting"}, {"measurement": "tolerability", "setting": "[2]; 2 mg/kg once daily, 90 days", "result": "well-tolerated"}, {"measurement": "body condition score, muscle condition score, owner appetite assessment and quality of life parameters", "setting": "[2]; 2 mg/kg once daily, vs placebo", "result": "no meaningful statistical differences"}, {"measurement": "bodyweight during the treatment period", "setting": "[2]; 2 mg/kg oral once daily, 90 days", "result": "gained weight"}, {"measurement": "mean descriptive (monthly) quality of life score", "setting": "[2]; 2 mg/kg, Day 0 to Day 90", "result": "remained the same"}, {"measurement": "IGF-1 following treatment", "setting": "IGF-1 [3]", "result": "increased"}, {"measurement": "IGF-1 Serum Levels, Mean Levels (SEM)", "setting": "IGF-1 [4]; 2 mg/kg once daily, Day 30", "result": "855.60 ± 72.74", "unit": "ng/mL"}, {"measurement": "IGF-1 Serum Levels, Change over baseline (Day 0)", "setting": "IGF-1 [4]; 2 mg/kg once daily, Day 30, L-tartrate", "result": "274.60 ± 49.06", "unit": "ng/mL"}, {"measurement": "IGF-1 Serum Levels, Change over baseline (Day 0)", "setting": "IGF-1 [4]; 2 mg/kg once daily, Day 60", "result": "195.64 ± 40.70", "unit": "ng/mL"}, {"measurement": "IGF-1 Serum Levels, Mean Levels (SEM)", "setting": "IGF-1 [4]; 2 mg/kg once daily, Day 60", "result": "752.55 ± 56.89", "unit": "ng/mL"}, {"measurement": "IGF-1 Serum Levels, Change over baseline (Day 0)", "setting": "IGF-1 [4]; 2 mg/kg once daily, Day 90", "result": "163.82 ± 52.74", "unit": "ng/mL"}, {"measurement": "IGF-1 Serum Levels, Mean Levels (SEM)", "setting": "IGF-1 [4]; 2 mg/kg once daily, Day 90", "result": "720.73 ± 65.70", "unit": "ng/mL"}, {"measurement": "IGF-1 Serum Levels, Mean Levels (SEM)", "setting": "IGF-1 [4]; capromorelin group, Day 0 (baseline)", "result": "556.91 ± 64.30", "unit": "ng/mL"}]}]}
